Source: US10421750B2, “Substituted morpholine derivatives having activity against pain” (ESTEVE PHARMACEUTICALS, S.A., priority 2015, dated 2019)

Biological target: human σ1 receptor (Homo sapiens (Human), UniProt Q99720)
Test: Human σ1 receptor radioligand assay ([3H](+)-pentazocine, transfected HEK-293 membranes)
Conditions: binding to the σ1 receptor expressed as Ki, [3H](+)-pentazocine 5 nM
Procedure: Human σ1 Receptor Radioligand Assay
To investigate binding properties of test compounds to human σ1 receptor, transfected HEK-293 membranes and [^3H](+)-pentazocine (Perkin Elmer, NET-1056), as the radioligand, were used. The assay was carried out with 7 μg of membrane suspension, 5 nM of [^3H](+)-pentazocine in either absence or presence of either buffer or 10 μM Haloperidol for total and non-specific binding, respectively. Binding buffer contained Tris-HCl 50 mM at pH 8. Plates were incubated at 37° C. for 120 minutes. After the incubation period, the reaction mix was then transferred to MultiScreen HTS, FC plates (Millipore), filtered and plates were washed 3 times with ice-cold 10 mM Tris-HCL (pH7.4). Filters were dried and counted at approximately 40% efficiency in a MicroBeta scintillation counter (Perkin-Elmer) using EcoScint liquid scintillation cocktail

Sequence of human σ1 receptor (Q99720 whole entry): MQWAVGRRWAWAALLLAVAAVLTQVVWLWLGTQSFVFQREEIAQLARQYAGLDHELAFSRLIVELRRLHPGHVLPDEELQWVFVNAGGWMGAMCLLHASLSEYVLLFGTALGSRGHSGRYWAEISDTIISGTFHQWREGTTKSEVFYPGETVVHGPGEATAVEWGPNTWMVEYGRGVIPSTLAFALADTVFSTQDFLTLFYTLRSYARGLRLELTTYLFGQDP

Compound | Ki
CCN1CC(C2CCN(CCC(C)C)CC2)OC2(CC2)C1=O (centres unmarked) [Example 40, 7-ethyl-5-(1-isopentylpiperidin-4-yl)-4-oxa-7-azaspiro[2.5]octan-8-one] | < 500 nM
CCN1CC(C2CCN(Cc3ccccc3)CC2)OCC1=O (centres unmarked) [Example 41, 6-(1-benzylpiperidin-4-yl)-4-ethylmorpholin-3-one] | < 100 nM
CCN1CC(C2CN(Cc3ccccc3)C2)OC2(CC2)C1=O (centres unmarked) [Example 42, 5-(1-benzylazetidin-3-yl)-7-ethyl-4-oxa-7-azaspiro[2.5]octan-8-one] | < 500 nM
CCN1CC(C2CN(CCc3ccccc3)C2)OC2(CC2)C1=O (centres unmarked) [Example 43, 7-ethyl-5-(1-phenethylazetidin-3-yl)-4-oxa-7-azaspiro[2.5]octan-8-one] | < 500 nM
CC(C)CCN1CCC(C2CN(c3ccccc3)C(=O)C3(CC3)O2)CC1 (centres unmarked) [Example 44, 5-(1-isopentylpiperidin-4-yl)-7-phenyl-4-oxa-7-azaspiro[2.5]octan-8-one] | < 500 nM
O=C1N(c2ccccc2)CC(C2CN(Cc3ccccc3)C2)OC12CC2 (centres unmarked) [Example 45, 5-(1-benzylazetidin-3-yl)-7-phenyl-4-oxa-7-azaspiro[2.5]octan-8-one] | < 100 nM
CCN1CCOC(C2CCN(Cc3ccccc3)CC2)C1 (centres unmarked) [Example 50, 2-(1-benzylpiperidin-4-yl)-4-ethylmorpholine] | < 100 nM

Second part, the molecule after the results:

Ki | Compound
≥ 500 nM | CC(C)N1CC(C2CCN(Cc3ccccc3)CC2)OC2(CC2)C1=O (centres unmarked) [Example 37, 5-(1-benzylpiperidin-4-yl)-7-isopropyl-4-oxa-7-azaspiro[2.5]octan-8-one]
≥ 500 nM | CC(C)N1CC(C2CCN(Cc3ccc(F)cc3)CC2)OC2(CC2)C1=O (centres unmarked) [Example 38, 5-(1-(4-fluorobenzyl)piperidin-4-yl)-7-isopropyl-4-oxa-7-azaspiro[2.5]octan-8-one]
≥ 500 nM | CC(C)N1CC(C2CCN(Cc3ccc(C#N)cc3)CC2)OC2(CC2)C1=O (centres unmarked) [Example 39, 4-((4-(7-isopropyl-8-oxo-4-oxa-7-azaspiro[2.5]octan-5-yl)piperidin-1-yl)methyl)benzonitrile]
< 500 nM | COc1ccc(CN2CC(C3CCN(CC(C)C)CC3)OC3(CC3)C2)cc1 (centres unmarked) [Example 46, 5-(1-isobutylpiperidin-4-yl)-7-(4-methoxybenzyl)-4-oxa-7-azaspiro[2.5]octane]
< 100 nM | COc1ccc(CN2CC(C3CCN(CCC(C)C)CC3)OC3(CC3)C2)cc1 (centres unmarked) [Example 47, 5-(1-isopentylpiperidin-4-yl)-7-(4-methoxybenzyl)-4-oxa-7-azaspiro[2.5]octane]
< 100 nM | COc1ccc(CN2CCOC(C3CCN(Cc4ccccc4)CC3)C2)cc1 (centres unmarked) [Example 49, 2-(1-benzylpiperidin-4-yl)-4-(4-methoxybenzyl)morpholine]
< 100 nM | CC(C)CCN1CCC(C2CN(C(=O)c3ccccc3)CC3(CC3)O2)CC1 (centres unmarked) [Example 51, (5-(1-Isopentylpiperidin-4-yl)-4-oxa-7-azaspiro[2.5]octan-7-yl)(phenyl)methanone]
